Test results as given in PMC2666621 (Current drug metabolism, 2009).

Assays:
[1] = target: T1, CHLαGcT (cholesterol α-glucosyltransferase; HP0421) (Helicobacter pylori, UniProt O25175); experiment: glucosyltransferase inhibition assay; type: biochemical; conditions: UDP-Glc 3.6 μM, cholesterol 400 μM (so in the source); cited from earlier work
[2] = target: T1, CHLαGcT (cholesterol α-glucosyltransferase; HP0421); experiment: product inhibition, Lineweaver-Burk; type: biochemical; conditions: varied UDP-Glc; competitive with UDP-Glc

Row | SMILES | IC50 [1] | product inhibition, Lineweaver-Burk [2]
1 | CC(=O)N[C@H]1[C@@H](Oc2ccc([N+](=O)[O-])cc2)O[C@H](CO)[C@H](O)[C@@H]1O[C@@H]1O[C@H](CO)[C@H](O)[C@H](O)[C@H]1O [Galβ1→3GalNAcα1→p-nitrophenol] | 7490 µM | 
2 | CCCCCCCCO[C@H]1O[C@H](CO[C@@H]2O[C@H](CO)[C@@H](O[C@@H]3O[C@H](CO)[C@H](O[C@H]4O[C@H](CO)[C@@H](O)[C@H](O)[C@H]4NC(C)=O)[C@H](O)[C@H]3O)[C@H](O)[C@H]2NC(C)=O)[C@H](O)[C@H](O[C@@H]2O[C@H](CO)[C@H](O)[C@H](O)[C@H]2O)[C@H]1NC(C)=O [GlcNAcα1→4Galβ1→4GlcNAcβ1→6(Galβ1→3)GalNAcα1→octyl] | 470 µM | 
3 | CC(=O)N[C@H]1[C@H](OC[C@H]2O[C@H](Oc3ccc([N+](=O)[O-])cc3)[C@H](NC(C)=O)[C@@H](O[C@@H]3O[C@H](CO)[C@H](O)[C@H](O)[C@H]3O)[C@H]2O)O[C@H](CO)[C@@H](O)[C@@H]1O [GlcNAcβ1→6(Galβ1→3)GalNAcα1→p-nitrophenol] | 2210 µM | 
4 | CCCCCCCCO[C@H]1O[C@H](CO)[C@H](O)[C@H](O[C@@H]2O[C@H](CO)[C@H](O)[C@H](O[C@]3(C(=O)O)C[C@H](O)[C@@H](NC(C)=O)[C@H]([C@H](O)[C@H](O)CO)O3)[C@H]2O)[C@H]1NC(C)=O [NeuAcα2→3Galβ1→3GalNAcα1→octyl] | 1090 µM | 
5 | O=c1ccn([C@@H]2O[C@H](COP(=O)(O)OP(=O)(O)O)[C@@H](O)[C@H]2O)c(=O)[nH]1 [UDP] |  | inhibition profile of UDP in the presence of UDP-Glc intersected at the Y-axis, indicating competitive inhibition
